Where two headings read alike, the source gives them in different places.
Assays:
IL-1 = test: LPS induced IL-1 cell based assay (LPS-activated monocytes); conditions: Homo sapiens, Monocyte
Procedure: Lipopolysaccharide-Activated Monocyte TNF Production Assay
Test compounds were evaluated in vitro for the ability to inhibit the production of TNF by monocytes activated with bacterial lipopolysaccharide (LPS). Fresh residual source leukocytes (a byproduct of plateletpheresis) were obtained from a local blood bank, and peripheral blood mononuclear cells (PBMCs) were isolated by density gradient centrifugation on Ficol-Paque Plus (Pharmacia). PBMCs were suspended at 2×10^6/mL in DMEM supplemented to contain 2% FCS, 10 mM, 0.3 mg/mL […], 100 U/mL penicillin G and […] streptomycin sulfate (complete media). Cells were plated into Falcon flat bottom, 96 well culture plates (200 μL/well) and cultured overnight at 37° C. and 6% CO2. Non-adherent cells were removed by washing with 200 μl/well of fresh medium. Wells containing adherent cells (˜70% monocytes) were replenished with 100 μL of fresh medium.
Preparation of Test Compound Stock Solutions
Test compounds were dissolved in […]. Compound stock solutions were prepared to an initial concentration of […]. Stocks were diluted initially to 20-200 μM in complete media. Nine two-fold serial dilutions of each compound were then prepared in complete medium.
Treatment of Cells with Test Compounds and Activation of TNF Production with Lipopolysaccharide
One hundred microliters of each test compound dilution were added to microtiter wells containing adherent monocytes and 100 μL complete medium. Monocytes were cultured with test compounds for 60 min at which time 25 μL of complete medium containing 30 ng/mL lipopolysaccharide from E. coli K532 were added to each well. Cells were cultured an additional 4 hrs. Culture supernatants were then removed and TNF presence in the supernatants was quantified using an ELISA. […]
Standard curve data were fit to a second order polynomial and unknown TNF-α concentrations determined from their OD by solving this equation for concentration. TNF concentrations were then plotted vs. test compound concentration using a second order polynomial. This equation was then used to calculate the concentration of test compounds causing a 50% reduction in TNF production.
Compounds of the invention can also be shown to inhibit LPS-induced release of IL-1β, IL-6 and/or IL-8 from monocytes by measuring concentrations of IL-1β, IL-6 and/or IL-8 by methods well known to those skilled in the art. […] Thus, the compounds of the invention may lower elevated levels of TNF-α, IL-1, IL-6, and IL-8 levels. Reducing elevated levels of these inflammatory cytokines to basal levels or below is favorable in controlling, slowing progression, and alleviating many disease states.

THP1 cells = test: Lipopolysaccharide-activated THP1 cell TNF production assay (THP1 cell based); conditions: Homo sapiens, THP-1, LPS-induced TNF-α
Procedure: Lipopolysaccharide-Activated THP1 Cell TNF Production Assay
THP1 cells are resuspended in fresh THP1 media (RPMI 1640, 10% heat-inactivated FBS, 1XPGS, 1XNEAA, plus 30 μM PME) at a concentration of 1E6/mL. One hundred microliters of cells per well are plated in a polystyrene 96-well tissue culture. One microgram per mL of bacterial LPS is prepared in THP1 media and is transferred to the wells. Test compounds are dissolved in 100% DMSO and are serially diluted 3-fold in a polypropylene 96-well microtiter plate (drug plate). HI control and LO control wells contain only DMSO. One microliter of test compound from the drug plate followed by 10 μL of LPS are transferred to the cell plate. The treated cells are induced to synthesize and secrete TNF-α at 37° C. for 3 h. Forty microliters of conditioned media are transferred to a 96-well polypropylene plate containing 110 μL of ECL buffer (50 mM Tris-HCl pH 8.0, 100 mM NaCl, 0.05% Tween 20, 0.05% NaN3 and 1% FBS) supplemented with 0.44 nM MAB610 monoclonal Ab (R&D Systems), 0.34 nM ruthenylated AF210NA polyclonal Ab (R&D Systems) and 44 μg/mL sheep anti-mouse M280 Dynabeads (Dynal). After a 2 h incubation at room temperature with shaking, the reaction is read on the ECL M8 Instrument (IGEN Inc.). A low voltage is applied to the ruthenylated TNF-α immune complexes, which in the presence of TPA (the active component in Origlo), results in a cyclical redox reaction generating light at […]. The amount of secreted TNF-α in the presence of compound compared with that in the presence of DMSO vehicle alone (HI control) is calculated using the formula: % control (POC)=(cpd−average LO)/(average HI−average LO)*100. Data (consisting of POC and inhibitor concentration in μM) is fitted to a 4-parameter equation (y=A+((B−A)/(1+((x/C)^D))), where A is the minimum y (POC) value, B is the maximum y (POC), C is the x (cpd concentration) at the point of inflection and D is the slope factor) using a Levenburg-Marquardt non-linear regression algorithm.

p38 = p38 (Homo sapiens, UniProt Q16539); test: p38 in-vitro HTRF enzyme assay; format: biochemical; conditions: recombinant human enzyme, read-out: p38 enyme HTRF assay IC50
p38, sequence (Q16539 whole entry): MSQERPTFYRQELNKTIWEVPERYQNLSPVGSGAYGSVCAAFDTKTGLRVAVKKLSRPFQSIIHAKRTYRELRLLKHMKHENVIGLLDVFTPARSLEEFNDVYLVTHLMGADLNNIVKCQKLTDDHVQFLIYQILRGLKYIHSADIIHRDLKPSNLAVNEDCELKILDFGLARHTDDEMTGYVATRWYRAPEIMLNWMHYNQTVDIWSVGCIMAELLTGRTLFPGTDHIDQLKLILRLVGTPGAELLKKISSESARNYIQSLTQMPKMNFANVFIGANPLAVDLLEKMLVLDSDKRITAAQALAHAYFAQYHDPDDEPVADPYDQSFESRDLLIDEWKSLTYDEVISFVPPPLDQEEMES
Procedure: p38 In-Vitro HTRF Enzyme Assay
The compounds of the invention can be tested for their respective affinities for the p38 protein using a conventional p38 in-vitro enzyme activity assay. For example, a P38-alpha HTRF assay may be used to measure the protein's in-vitro phosphorylation activity, and the data analyzed using time resolved fluorimetry techniques (FRET). A p38 HTRF assay is as follows. The kinase reaction buffer for p38α, p38β, p38δ and p38γ HTRF assays consists of 50 mM Tris-pH 7.5, 5 mM MgCl2, 0.1 mg/mL BSA, 100 μM Na3VO4 and 0.5 mM DTT. The HTRF detection buffer contains 100 mM HEPES-pH 7.5, 100 mM NaCl, 0.1% BSA, 0.05% Tween-20, and 10 mM EDTA. Each compound was dissolved in 100% DMSO and serially diluted (3 fold, 10 point) in a polypropylene 96-well microtiter plate (drug plate). The final starting concentration of the compound in the p38α and p38β enzymatic assays was about 1 μM. The final starting concentration of each compound in the p38δ and p38γ enzymatic assays was about 10 μM. The p38α, p38β, p38δ and p38γ kinase reactions were carried out in a polypropylene 96-well black round bottom assay plate in total volume of 30 μL kinase reaction buffer. Appropriate concentration of purified and activated enzyme (recombinant human) was mixed with indicated concentration of ATP and 100 nM GST-ATF2-Avitag, in the presence or absence (HI control) of each compound. In the absence of enzyme, the background was measured as LO control. HI controls and LO controls contained only DMSO. The reaction was allowed to incubate for 1 hour at RT. […] After 60 minutes incubation at room temperature, the assay plate was read in a Discovery Plate Reader. […] The resulting data was analyzed by taking the proportion of substrate phosphorylated in the kinase reaction in the presence of each individual compound and comparing it with that phosphorylated in the presence of DMSO vehicle alone (HI control). The data was calculated using the formula: % control (POC)=(compound−average LO)/(average HI−average LO)*100. […] All results were expressed as the mean±the standard error of the mean. Data acquisition and non-linear regression algorithms were performed using Activity Base v5.2 and XLfit software v4.1 respectively. Additional assay information may be obtained in Park Y W, Cummings R T, Wu L, et al. Homogeneous Proximity Tyrosine Kinase Assays Scintillation Proximity Assay versus Homogeneous Time-Resolved Fluorescence. Analytical Biochemistry.

IC50 (IL-1; range symbols) | IC50 (THP1 cells; range symbols) | IC50 (p38; range symbols) | IC50 (p38; actual values) | IC50 (IL-1; actual values) | IC50 (THP1 cells; actual values) | SMILES
 |  |  | 1.7 nM | 3.6 nM | 1.4 nM | CCn1c(=O)cc(Nc2cc(C(=O)NC3CC3)ccc2Cl)c2cnn(-c3ccc(F)cc3)c21 [Example 29, 4-chloro-N-cyclopropyl-3-((7-ethyl-1-(4-fluorophenyl)-6-oxo-6,7-dihydro-1H-pyrazolo[3,4-b]pyridin-4-yl)amino)benzamide]
25 to 99 nM | < 25 nM | < 25 nM |  |  |  | Cc1ccc(C(N)=O)cc1Nc1cc(=O)n(C)c2c1cnn2-c1cc(F)ccc1F [Example 21, 3-((1-(2,5-difluorophenyl)-7-methyl-6-oxo-6,7-dihydro-1H-pyrazolo[3,4-b]pyridin-4-yl)amino)-4-methylbenzamide]
100 to 249 nM | 25 to 99 nM |  |  |  |  | Cc1ccc(C(=O)NC(C)(C)C)cc1Nc1cc(=O)n(C)c2c1cnn2-c1ccc(F)cc1F [Example 25, N-tert-butyl-3-((1-(2,4-difluorophenyl)-7-methyl-6-oxo-6,7-dihydro-1H-pyrazolo[3,4-b]pyridin-4-yl)amino)-4-methylbenzamide]
< 25 nM | < 25 nM | < 25 nM |  |  |  | CCn1c(=O)cc(Nc2cc(C(=O)NC3CC3)ccc2C)c2cnn(-c3ccc(F)cc3)c21 [Example 23, N-cyclopropyl-3-((7-ethyl-1-(4-fluorophenyl)-6-oxo-6,7-dihydro-1H-pyrazolo[3,4-b]pyridin-4-yl)amino)-4-methylbenzamide]
< 25 nM | < 25 nM | < 25 nM |  |  |  | Cc1ccc(C(=O)NC2CC2)cc1Nc1cc(=O)n(C)c2c1cnn2-c1cc(F)ccc1F [Example 20, N-cyclopropyl-3-((1-(2,5-difluorophenyl)-7-methyl-6-oxo-6,7-dihydro-1H-pyrazolo[3,4-b]pyridin-4-yl)amino)-4-methylbenzamide]
 |  |  | 1.6 nM | 3.8 nM | 0.6 nM | CONC(=O)c1ccc(C)c(Nc2cc(=O)n(C)c3c2cnn3-c2ccc(F)cc2F)c1 [Example 30, 3-((1-(2,4-difluorophenyl)-7-methyl-6-oxo-6,7-dihydro-1H-pyrazolo[3,4-b]pyridin-4-yl)amino)-N-methoxy-4-methylbenzamide]
 |  |  |  | 101 nM | 8.2 nM | Cn1c(=O)cc(Oc2cc(C(=O)NC3CC3)ccc2Cl)c2cnn(-c3cc(F)ccc3F)c21 [Example 26, 4-chloro-N-cyclopropyl-3-((1-(2,5-difluorophenyl)-7-methyl-6-oxo-6,7-dihydro-1H-pyrazolo[3,4-b]pyridin-4-yl)oxy)benzamide]

More lines, now with the values behind:

SMILES | IC50 (IL-1; range symbols) | IC50 (THP1 cells; range symbols) | IC50 (p38; range symbols) | IC50 (p38; actual values) | IC50 (IL-1; actual values) | IC50 (THP1 cells; actual values)
Cc1ccc(C(=O)NC2CC2)cc1Nc1cc(=O)n(C)c2c1cnn2-c1ccc(F)cc1F [Example 14, N-cyclopropyl-3-((1-(2,4-difluorophenyl)-7-methyl-6-oxo-6,7-dihydro-1H-pyrazolo[3,4-b]pyridin-4-yl)amino)-4-methylbenzamide] | < 25 nM | < 25 nM |  |  |  | 
Cn1c(=O)cc(Nc2ccc(F)cc2F)c2cnn(-c3ccc(F)cc3F)c21 [Example 9, 1-(2,4-difluorophenyl)-4-((2,4-difluorophenyl)amino)-7-methyl-1,7-dihydro-6H-pyrazolo[3,4-b]pyridin-6-one] | 1000 to 5000 nM | 250 to 999 nM | 1000 to 5000 nM |  |  | 
Cn1c(=O)cc(Nc2cc(C(=O)NC3CC3)ccc2Cl)c2cnn(-c3cc(F)ccc3F)c21 [Example 12, 4-chloro-N-cyclopropyl-3-((1-(2,5-difluorophenyl)-7-methyl-6-oxo-6,7-dihydro-1H-pyrazolo[3,4-b]pyridin-4-yl)amino)benzamide] | < 25 nM | < 25 nM | < 25 nM |  |  | 
Cn1c(=O)cc(Nc2cc(C(=O)NC3CC3)ccc2Cl)c2cnn(-c3ccc(F)cc3F)c21 [Example 13, 4-chloro-N-cyclopropyl-3-((1-(2,4-difluorophenyl)-7-methyl-6-oxo-6,7-dihydro-1H-pyrazolo[3,4-b]pyridin-4-yl)amino)benzamide] | < 25 nM | < 25 nM |  |  |  | 
Cc1ccc(C(=O)O)cc1Nc1cc(=O)n(C)c2c1cnn2-c1ccc(F)cc1F [Example 17, 3-((1-(2,4-difluorophenyl)-7-methyl-6-oxo-6,7-dihydro-1H-pyrazolo[3,4-b]pyridin-4-yl)amino)-4-methylbenzoic acid] | 1000 to 5000 nM | 1000 to 5000 nM | 1000 to 5000 nM |  |  | 
Cc1ccc(C(=O)NC2CC2)cc1Nc1cc(=O)n(C)c2c1cnn2-c1cccc(F)c1 [Example 4, N-cyclopropyl-3-((1-(3-fluorophenyl)-7-methyl-6-oxo-6,7-dihydro-1H-pyrazolo[3,4-b]pyridin-4-yl)amino)-4-methylbenzamide] | < 25 nM | < 25 nM | < 25 nM |  |  | 
Cc1ccc(C(N)=O)cc1Nc1cc(=O)n(C)c2c1cnn2-c1ccc(F)cc1F [Example 18, 3-((1-(2,4-difluorophenyl)-7-methyl-6-oxo-6,7-dihydro-1H-pyrazolo[3,4-b]pyridin-4-yl)amino)-4-methylbenzamide] | < 25 nM | < 25 nM | < 25 nM |  |  | 
